The supplement of paper PMC11451515

Test system: SEM cells
Assay: cell viability relative to DMSO control; higher = less cytotoxic
Conditions: 48 h
Method in brief: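 NOMO1 or SEM cells were plated at 500 cells/well and P12-Ichikawa cells at 1000 cells/well in 1536-well plates (5 μl), after each leukemia line had been adapted for at least four passages in each medium. Pin dosing delivered library compounds in DMSO at 11 threefold concentrations, 47 μM to 0.79 nM. CellTiter-Glo One luminescence was read after 48 h at 37°C. Viability is reported as a per-plate percentage of DMSO wells, with cell-free wells as background.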

[1] = HPLM + 10% dialyzed FBS, 0.000781 µM
[2] = HPLM + 10% dialyzed FBS, 0.00234 µM
[3] = HPLM + 10% dialyzed FBS, 0.00702 µM
[4] = HPLM + 10% dialyzed FBS, 0.0211 µM
[5] = HPLM + 10% dialyzed FBS, 0.0632 µM
[6] = HPLM + 10% dialyzed FBS, 0.19 µM
[7] = HPLM + 10% dialyzed FBS, 0.569 µM
[8] = HPLM + 10% dialyzed FBS, 1.71 µM
[9] = HPLM + 10% dialyzed FBS, 5.12 µM
[10] = HPLM + 10% dialyzed FBS, 15.4 µM
[11] = HPLM + 10% dialyzed FBS, 46.1 µM
[12] = RPMI 5 mM glucose + 10% FBS, 0.000781 µM
[13] = RPMI 5 mM glucose + 10% FBS, 0.00234 µM
[14] = RPMI 5 mM glucose + 10% FBS, 0.00702 µM
[15] = RPMI 5 mM glucose + 10% FBS, 0.0211 µM
[16] = RPMI 5 mM glucose + 10% FBS, 0.0632 µM
[17] = RPMI 5 mM glucose + 10% FBS, 0.19 µM
[18] = RPMI 5 mM glucose + 10% FBS, 0.569 µM
[19] = RPMI 5 mM glucose + 10% FBS, 1.71 µM
[20] = RPMI 5 mM glucose + 10% FBS, 5.12 µM
[21] = RPMI 5 mM glucose + 10% FBS, 15.4 µM
[22] = RPMI 5 mM glucose + 10% FBS, 46.1 µM
[23] = RPMI 5 mM glucose + 10% dialyzed FBS, 0.000781 µM
[24] = RPMI 5 mM glucose + 10% dialyzed FBS, 0.00234 µM
[25] = RPMI 5 mM glucose + 10% dialyzed FBS, 0.00702 µM
[26] = RPMI 5 mM glucose + 10% dialyzed FBS, 0.0211 µM
[27] = RPMI 5 mM glucose + 10% dialyzed FBS, 0.0632 µM
[28] = RPMI 5 mM glucose + 10% dialyzed FBS, 0.19 µM
[29] = RPMI 5 mM glucose + 10% dialyzed FBS, 0.569 µM
[30] = RPMI 5 mM glucose + 10% dialyzed FBS, 1.71 µM
[31] = RPMI 5 mM glucose + 10% dialyzed FBS, 5.12 µM
[32] = RPMI 5 mM glucose + 10% dialyzed FBS, 15.4 µM
[33] = RPMI 5 mM glucose + 10% dialyzed FBS, 46.1 µM

Structure (SMILES) | cell viability [1] [%] | cell viability [2] [%] | cell viability [3] [%] | cell viability [4] [%] | cell viability [5] [%] | cell viability [6] [%] | cell viability [7] [%] | cell viability [8] [%] | cell viability [9] [%] | cell viability [10] [%] | cell viability [11] [%] | cell viability [12] [%] | cell viability [13] [%] | cell viability [14] [%] | cell viability [15] [%] | cell viability [16] [%] | cell viability [17] [%] | cell viability [18] [%] | cell viability [19] [%] | cell viability [20] [%] | cell viability [21] [%] | cell viability [22] [%] | cell viability [23] [%] | cell viability [24] [%] | cell viability [25] [%] | cell viability [26] [%] | cell viability [27] [%] | cell viability [28] [%] | cell viability [29] [%] | cell viability [30] [%] | cell viability [31] [%] | cell viability [32] [%] | cell viability [33] [%]
CCOc1cc(C(=O)Nc2ccc(Cl)c(-c3nc4ccccc4[nH]3)c2)cc(OCC)c1OCC | 70.1 | 76 | 91.4 | 92.8 | 92 | 87.5 | 89.3 | 91 | 85.2 | 17.4 | 62.4 | 76.8 | 74.7 | 93.6 | 92.7 | 94.2 | 94.4 | 109 | 94.5 | 93.5 | 9.91 | 48.1 | 73.9 | 77.1 | 91.8 | 95.4 | 85.6 | 93.5 | 92.6 | 86.6 | 77.7 | 16.8 | 46.1
CN1CCC(CNc2ccc3ncc(-c4cccc(OC(F)(F)F)c4)n3n2)CC1 | 107 | 102 | 104 | 95.6 | 89.1 | 89.7 | 74.5 | 49.7 | 41.6 | 32.2 | 5.1 | 109 | 110 | 113 | 97.4 | 96.4 | 97.6 | 78.3 | 52.9 | 42.5 | 35.5 | 6.26 | 93.3 | 109 | 92.8 | 98.7 | 99.4 | 87.3 | 77.3 | 42.3 | 32.4 | 30.4 | 6.78
Cc1ccc(C(=O)Nc2ccc([S+](=O)([O-])O)c3cc([S+](=O)([O-])O)cc([S+](=O)([O-])O)c23)cc1NC(=O)c1cccc(NC(=O)Nc2cccc(C(=O)Nc3cc(C(=O)Nc4ccc([S+](=O)([O-])O)c5cc([S+](=O)([O-])O)cc([S+](=O)([O-])O)c45)ccc3C)c2)c1 | 96.8 | 105 | 96.2 | 100 | 115 | 91.4 | 101 | 93.8 | 68.5 | 44.4 | 33.1 | 109 | 128 | 120 | 121 | 113 | 112 | 100 | 115 | 52.7 | 21.2 | 22.7 | 85 | 97.2 | 100 | 88.6 | 98.4 | 86 | 94.9 | 86.5 | 55.1 | 23.9 | 23.7
CN(C)CCc1c[nH]c2ccc(Cn3cncn3)cc12 | 76.1 | 88.7 | 97.4 | 96.4 | 98 | 48.5 | 55 | 23 | 9.54 | 8.01 | 7.53 | 86 | 91 | 86.9 | 84.9 | 75.8 | 30.7 | 36.3 | 10.4 | 7.9 | 7.16 | 6.13 | 91.4 | 96.1 | 88.9 | 97.5 | 79.3 | 43.4 | 50.7 | 18.2 | 9.37 | 8.33 | 6.69
CC(O)(C[S+](=O)([O-])c1ccc(F)cc1)C(=O)Nc1ccc(C#N)c(C(F)(F)F)c1 (stereo not given) | 86.8 | 96.4 | 91 | 80.3 | 85.2 | 96.2 | 96.2 | 93.5 | 97.4 | 83.2 | 73.9 | 84.9 | 83.6 | 98 | 87 | 88.7 | 103 | 96.3 | 96.5 | 91.8 | 76.8 | 62.9 | 87.2 | 84.4 | 98.1 | 94.8 | 80 | 102 | 86.8 | 102 | 99.1 | 72.3 | 55
